Assay results from BindingDB's records for patent US9670191 (Nerviano Medical Sciences, 2017).

Biological target: T1, Cell division cycle 7-related protein kinase [58-574]/Protein DBF4 homolog A (Homo sapiens, UniProt O00311)
T1 construct: 58-574
Assay: Inhibition Assay of Cdc7 Activity
Procedure: The assay consists of the transfer of radioactivity labeled phosphate moiety by the kinase to an acceptor substrate. The resulting 33P-labeled product is separated from unreacted tracer, transferred into a scintillation cocktail and light emitted is measured in a scintillation counter. The inhibition assay of Cdc7/Dbf4 activity is performed according to the following protocol. The MCM2 substrate is trans-phosphorylated by the Cdc7/Dbf4 complex in the presence of ATP traced with γ33-ATP. The reaction is stopped by addition of Dowex resin in the presence of formic acid. Dowex resin particles capture unreacted γ33-ATP and drag it to the bottom of the well while 33P phosphorylated MCM2 substrate remains in solution. The supernatant is collected, transferred into Optiplate plates and the extent of substrate phosphorylation is evaluated by β counting. The inhibition assay of Cdc7/Dbf4 activity was performed in 96 wells plate according to the following protocol.

T1 sequence (O00311 58-574): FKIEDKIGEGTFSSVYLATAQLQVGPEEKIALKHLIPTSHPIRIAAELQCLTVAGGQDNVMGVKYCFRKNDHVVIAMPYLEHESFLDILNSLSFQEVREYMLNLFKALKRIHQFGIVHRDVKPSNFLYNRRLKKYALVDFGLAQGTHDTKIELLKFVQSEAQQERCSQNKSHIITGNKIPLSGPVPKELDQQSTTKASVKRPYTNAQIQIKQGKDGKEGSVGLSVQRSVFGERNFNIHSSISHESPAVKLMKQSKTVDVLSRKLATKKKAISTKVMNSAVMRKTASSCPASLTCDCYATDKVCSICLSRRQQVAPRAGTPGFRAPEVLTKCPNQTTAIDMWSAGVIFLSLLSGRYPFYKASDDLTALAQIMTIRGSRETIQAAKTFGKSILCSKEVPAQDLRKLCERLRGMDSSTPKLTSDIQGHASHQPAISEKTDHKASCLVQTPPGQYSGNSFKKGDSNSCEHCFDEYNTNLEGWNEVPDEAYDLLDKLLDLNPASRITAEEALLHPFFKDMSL
T1 sequence (Q9UBU7 whole entry, further chain): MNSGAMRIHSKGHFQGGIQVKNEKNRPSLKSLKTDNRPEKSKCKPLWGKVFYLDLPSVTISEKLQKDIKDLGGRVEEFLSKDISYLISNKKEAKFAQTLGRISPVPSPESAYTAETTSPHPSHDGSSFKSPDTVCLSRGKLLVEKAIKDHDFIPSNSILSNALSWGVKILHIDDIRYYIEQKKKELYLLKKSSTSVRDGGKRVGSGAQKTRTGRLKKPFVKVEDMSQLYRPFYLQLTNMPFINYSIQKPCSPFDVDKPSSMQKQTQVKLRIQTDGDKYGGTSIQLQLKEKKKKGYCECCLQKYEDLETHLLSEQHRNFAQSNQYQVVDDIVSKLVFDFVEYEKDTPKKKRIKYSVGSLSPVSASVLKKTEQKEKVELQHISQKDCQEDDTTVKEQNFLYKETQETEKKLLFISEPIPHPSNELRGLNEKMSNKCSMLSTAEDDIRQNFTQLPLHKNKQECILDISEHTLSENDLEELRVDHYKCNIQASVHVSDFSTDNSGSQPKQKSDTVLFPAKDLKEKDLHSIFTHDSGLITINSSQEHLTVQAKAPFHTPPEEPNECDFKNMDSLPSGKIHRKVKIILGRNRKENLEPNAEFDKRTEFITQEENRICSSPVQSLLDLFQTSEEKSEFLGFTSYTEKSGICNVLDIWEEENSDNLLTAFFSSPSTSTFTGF

IC50, < 1 µM:
NC(=O)c1cc(-c2ccnc(N)n2)[nH]c1-c1ccccn1 [US9670191, G12]
NC(=O)c1cc(-c2ccnc(N)n2)[nH]c1-c1ccc2ccccc2c1 [US9670191, F6]
NC(=O)c1cc(-c2ccncc2)[nH]c1C1CCNCC1 [US9670191, Q3]
CNC(=O)c1cc(-c2ccnc(N)n2)[nH]c1-c1ccccc1 [US9670191, M1]
N#Cc1cccc(-c2[nH]c(-c3ccncc3)cc2C(N)=O)c1 [US9670191, A23]
NC(=O)c1cc(-c2ccnc(N)n2)[nH]c1-c1cc2ccccc2s1 [US9670191, G5]
NC(=O)c1cc(-c2ccnc(N)n2)[nH]c1-c1csc2ccccc12 [US9670191, G6]
NC(=O)c1c(-c2ccccc2)[nH]c(-c2ccnc(N)n2)c1I [US9670191, N3]
NC(=O)c1cc(-c2ccnc(N)n2)[nH]c1-c1ccc2sccc2c1 [US9670191, G15]
NC(=O)c1cc(-c2nc(N)ncc2F)[nH]c1-c1ccccc1 [US9670191, V1]
NC(=O)c1cc(-c2ccncc2)[nH]c1-c1ccccc1[N+](=O)[O-] [US9670191, A13]
NC(=O)c1cc(-c2ccnc(N)n2)sc1-c1ccccc1 [US9670191, S1]
NC(=O)c1cc(-c2ccnc(N)n2)oc1-c1ccccc1 [US9670191, T1]
NC(=O)c1cc(-c2ccncc2)[nH]c1-c1cccc([N+](=O)[O-])c1 [US9670191, A14]
NC(=O)c1cc(-c2ccncc2)[nH]c1-c1ccc([N+](=O)[O-])cc1 [US9670191, A15]
NC(=O)c1cc(-c2ccnc(N)n2)[nH]c1-c1cc2ccccc2o1 [US9670191, G9]
NC(=O)c1cc(-c2ccncc2)[nH]c1Br [US9670191, R1]
Cn1cc(-c2[nH]c(-c3ccnc(N)n3)cc2C(N)=O)c2ccccc21 [US9670191, G13]
C=Cc1c(-c2ccnc(N)n2)[nH]c(-c2ccccc2)c1C(N)=O [US9670191, O1]
NC(=O)c1cc(-c2ccnc(N)n2)[nH]c1-c1cccc2ccccc12 [US9670191, F5]
NC(=O)c1cc(-c2ccnc(N)n2)[nH]c1-c1cccs1 [US9670191, G2]
Cn1c(-c2[nH]c(-c3ccnc(N)n3)cc2C(N)=O)cc2ccccc21 [US9670191, G14]
NC(=O)c1cc(-c2ccncc2)[nH]c1-c1ccncc1 [US9670191, C3]
NC(=O)c1cc(-c2ccncc2)[nH]c1C1CCCCC1 [US9670191, Q1]
NC(=O)c1c(-c2ccccc2)[nH]c(-c2ccnc(N)n2)c1Cl [US9670191, Z1]
NC(=O)c1c[nH]c(-c2ccncc2)c1 [US9670191, P1]
CC(C)(C)OC(=O)N1CCC(c2[nH]c(-c3ccncc3)cc2C(N)=O)CC1 [US9670191, Q2]
